# From ChEMBL document CHEMBL1649220, “New variant of CTX-M-type extended-spectrum beta-lactamases, CTX-M-71, with a Gly238Cys substitution in a Klebsiella pneumoniae isolate from Bulgaria” (2009)
# Columns and labels:
# Assay type in all cases: functional
# Escherichia coli [1] = test: Antimicrobial activity against Escherichia coli DH5[alpha] by agar dilution method
# Klebsiella pneumoniae [2] = test: Antimicrobial activity against Klebsiella pneumoniae AH24-270 expressing blaCTX-M-71 gene by agar dilution method in presence of beta-lactamase inhibitor clavulanic acid
# Escherichia coli [3] = test: Antimicrobial activity against Escherichia coli DH5[alpha] harboring pBC-CTX-M-15 plasmid by agar dilution method
# Escherichia coli [4] = test: Antimicrobial activity against Escherichia coli K-12 by agar dilution method in presence of beta-lactamase inhibitor clavulanic acid
# Escherichia coli [5] = test: Antimicrobial activity against Escherichia coli DH5[alpha] harboring pBC-CTX-M-71 plasmid by agar dilution method
# Klebsiella pneumoniae [6] = test: Antimicrobial activity against Klebsiella pneumoniae AH24-270 expressing blaCTX-M-71 gene by agar dilution method
# Escherichia coli [7] = test: Antimicrobial activity against Escherichia coli K-12 transconjugant harboring blaCTX-M-71 gene by agar dilution method in presence of beta-lactamase inhibitor clavulanic acid
# Escherichia coli [8] = test: Antimicrobial activity against Escherichia coli DH5alpha harboring pBC-CTX-M-71 plasmid by agar dilution method in presence of beta-lactamase inhibitor clavulanic acid; conditions: DH5[alpha]
# Escherichia coli [9] = test: Antimicrobial activity against Escherichia coli K-12 by agar dilution method
# Escherichia coli [10] = test: Antimicrobial activity against Escherichia coli DH5alpha by agar dilution method in presence of beta-lactamase inhibitor clavulanic acid; conditions: DH5[alpha]
# Escherichia coli [11] = test: Antimicrobial activity against Escherichia coli DH5alpha harboring pBC-CTX-M-15 plasmid by agar dilution method in presence of beta-lactamase inhibitor clavulanic acid; conditions: DH5[alpha]
# Escherichia coli [12] = test: Antimicrobial activity against Escherichia coli K-12 transconjugant harboring blaCTX-M-71 gene by agar dilution method
# Escherichia coli [13] = test: Antimicrobial activity against Escherichia coli K-12 by agar dilution method in presence of beta-lactamase inhibitor Tazobactam
# Klebsiella pneumoniae [14] = test: Antimicrobial activity against Klebsiella pneumoniae AH24-270 expressing blaCTX-M-71 gene by agar dilution method in presence of beta-lactamase inhibitor Tazobactam
# Escherichia coli [15] = test: Antimicrobial activity against Escherichia coli DH5alpha harboring pBC-CTX-M-71 plasmid by agar dilution method in presence of beta-lactamase inhibitor Tazobactam; conditions: DH5[alpha]
# Escherichia coli [16] = test: Antimicrobial activity against Escherichia coli DH5alpha by agar dilution method in presence of beta-lactamase inhibitor Tazobactam; conditions: DH5[alpha]
# Escherichia coli [17] = test: Antimicrobial activity against Escherichia coli DH5alpha harboring pBC-CTX-M-15 plasmid by agar dilution method in presence of beta-lactamase inhibitor Tazobactam; conditions: DH5[alpha]
# Escherichia coli [18] = test: Antimicrobial activity against Escherichia coli K-12 transconjugant harboring blaCTX-M-71 gene by agar dilution method in presence of beta-lactamase inhibitor Tazobactam
SMILES,MIC (Escherichia coli [1]),MIC (Klebsiella pneumoniae [2]),MIC (Escherichia coli [3]),MIC (Escherichia coli [4]),MIC (Escherichia coli [5]),MIC (Klebsiella pneumoniae [6]),MIC (Escherichia coli [7]),MIC (Escherichia coli [8]),MIC (Escherichia coli [9]),MIC (Escherichia coli [10]),MIC (Escherichia coli [11]),MIC (Escherichia coli [12]),MIC (Escherichia coli [13]),MIC (Klebsiella pneumoniae [14]),MIC (Escherichia coli [15]),MIC (Escherichia coli [16]),MIC (Escherichia coli [17]),MIC (Escherichia coli [18])
CC1(C)S[C@@H]2[C@H](NC(=O)[C@H](N)c3ccc(O)cc3)C(=O)N2[C@H]1C(=O)O [AMOXICILLIN],4 µg/mL,> 512 µg/mL,> 512 µg/mL,2 µg/mL,> 512 µg/mL,> 512 µg/mL,64 µg/mL,8 µg/mL,2 µg/mL,2 µg/mL,8 µg/mL,> 512 µg/mL,–,–,–,–,–,–
C[C@H]1[C@H](NC(=O)/C(=N\OC(C)(C)C(=O)O)c2csc(N)n2)C(=O)N1S(=O)(=O)O [AZTREONAM],–,–,64 µg/mL,–,8 µg/mL,128 µg/mL,–,–,–,–,–,8 µg/mL,–,–,–,–,–,–
CO/N=C(\C(=O)N[C@@H]1C(=O)N2C(C(=O)[O-])=C(C[N+]3(C)CCCC3)CS[C@H]12)c1csc(N)n1 [CEFEPIME],0.016 µg/mL,–,16 µg/mL,–,4 µg/mL,128 µg/mL,–,–,0.016 µg/mL,–,–,–,–,–,–,–,–,–
CO/N=C(\C(=O)N[C@@H]1C(=O)N2C(C(=O)O)=C(COC(C)=O)CS[C@H]12)c1csc(N)n1 [CEFOTAXIME],0.03 µg/mL,2 µg/mL,> 256 µg/mL,0.016 µg/mL,16 µg/mL,64 µg/mL,0.06 µg/mL,0.03 µg/mL,0.03 µg/mL,0.016 µg/mL,0.06 µg/mL,4 µg/mL,–,–,–,–,–,–
CO[C@@]1(NC(=O)Cc2cccs2)C(=O)N2C(C(=O)O)=C(COC(N)=O)CS[C@@H]21 [CEFOXITIN],4 µg/mL,–,4 µg/mL,–,4 µg/mL,64 µg/mL,–,–,2 µg/mL,–,–,2 µg/mL,–,–,–,–,–,–
CC(C)(O/N=C(\C(=O)N[C@@H]1C(=O)N2C(C(=O)[O-])=C(C[n+]3ccccc3)CS[C@H]12)c1csc(N)n1)C(=O)O [CEFTAZIDIME],0.13 µg/mL,4 µg/mL,64 µg/mL,0.06 µg/mL,8 µg/mL,16 µg/mL,0.25 µg/mL,0.25 µg/mL,0.06 µg/mL,0.06 µg/mL,0.25 µg/mL,4 µg/mL,–,–,–,–,–,–
CO/N=C(\C(=O)N[C@@H]1C(=O)N2C(C(=O)O)=C(COC(N)=O)CS[C@H]12)c1ccco1 [CEFUROXIME],4 µg/mL,–,> 512 µg/mL,–,512 µg/mL,> 512 µg/mL,–,–,2 µg/mL,–,–,256 µg/mL,–,–,–,–,–,–
C[C@@H](O)[C@H]1C(=O)N2C(C(=O)O)=C(S[C@@H]3CN[C@H](C(=O)Nc4cccc(C(=O)O)c4)C3)[C@H](C)[C@H]12 [ERTAPENEM],0.016 µg/mL,8 µg/mL,0.03 µg/mL,–,0.016 µg/mL,3 µg/mL,–,–,0.008 µg/mL,–,–,0.016 µg/mL,–,–,–,–,–,–
C[C@@H](O)[C@H]1C(=O)N2C(C(=O)O)=C([C@H]3CCCO3)S[C@H]12 [FAROPENEM],0.5 µg/mL,4 µg/mL,1 µg/mL,0.5 µg/mL,0.5 µg/mL,4 µg/mL,0.5 µg/mL,0.5 µg/mL,0.5 µg/mL,0.25 µg/mL,0.5 µg/mL,1 µg/mL,–,–,–,–,–,–
C[C@@H](O)[C@H]1C(=O)N2C(C(=O)O)=C(SCCNC=N)C[C@H]12 [IMIPENEM ANHYDROUS],–,0.5 µg/mL,–,0.13 µg/mL,–,1 µg/mL,–,0.25 µg/mL,–,–,–,–,–,–,–,–,–,–
C[C@@H](O)[C@H]1C(=O)N2C(C(=O)O)=C(S[C@@H]3CN[C@H](C(=O)N(C)C)C3)[C@H](C)[C@H]12 [MEROPENEM],0.03 µg/mL,0.5 µg/mL,0.03 µg/mL,0.016 µg/mL,0.03 µg/mL,4 µg/mL,0.016 µg/mL,0.03 µg/mL,0.03 µg/mL,0.03 µg/mL,0.03 µg/mL,0.03 µg/mL,–,–,–,–,–,–
CCN1CCN(C(=O)N[C@@H](C(=O)N[C@@H]2C(=O)N3[C@@H]2SC(C)(C)[C@@H]3C(=O)O)c2ccccc2)C(=O)C1=O [PIPERACILLIN],2 µg/mL,–,> 256 µg/mL,–,256 µg/mL,> 256 µg/mL,–,–,1 µg/mL,–,–,> 256 µg/mL,1 µg/mL,> 256 µg/mL,2 µg/mL,1 µg/mL,2 µg/mL,16 µg/mL
